Test system: invasive stage IIA-IIIB breast adenocarcinoma
Test: CA163-080 phase II trial: pathologic complete response (pCR) in the breast after neoadjuvant ixabepilone, Sataloff classification
Format: in vivo, human
Protocol: CA163-080 (080 trial) is an exploratory genomic phase II study that was conducted in breast cancer patients who received ixabepilone as a neoadjuvant treatment. The primary objective of this study was to identify predictive markers of response to ixabepilone through gene expression profiling of pre-treatment breast cancer biopsies. Patients with invasive stage IIA-IIIB breast adenocarcinoma (tumor size ≧3 cm diameter) received 40 mg/m^2 ixabepilone as a 3-hour infusion on Day for up to four 21-day cycles, followed by surgery within 3-4 weeks of completion of chemotherapy. A total of 164 patients were enrolled in this study. Biopsies for gene expression analysis were obtained both pre- and post-treatment. Upon isolation of biopsies from the patients, samples were either snap frozen in liquid nitrogen or placed into RNAlater solution overnight, followed by removal from the RNAlater solution. All samples were kept at −70° C. until use.
Pathological response was assessed using the Sataloff classification system (D. Sataloff et al., J. Am. Coll. Surg., 180(3):297-306 (1995)) and used as an end point for the pharmacogenomic analysis. The pathologic response was evaluated in the primary tumor site at the end of treatment and prior to surgery by assessing histologic changes compared with baseline as following: At the primary tumor site, cellular modifications were evaluated in both the infiltrating tumoral component and in the possible ductal component, to determine viable residual infiltrating component (% of total tumoral mass); residual ductal component (% of total tumoral mass); the mitotic index. Pathologic Complete Response (pCR) in the breast only was defined as T-A, Total or near total therapeutic effect in primary site. […] The response rate was defined as the number of responders divided by the number of treated patients.
Based on the definition of Pathology Complete Response (pCR), there are 23 responders and 111 non-responders in the 080 trial. Estrogen receptor 1 (ER) was previously found to be the best single-gene predictor with negative prediction value (NPV) 92% and positive prediction value (PPV) 37%, as described in PCT Publication No. ______ (PCT Application No. PCT/US2005/043261).
The data were based on the 080 trial. Patients' ER and PR status were determined by IHC assay.

[1] = 134 patients of the genomic dataset, 080 trial
[2] = ER− group of the genomic dataset

For `C/C(=C\c1csc(C)n1)[C@@H]1C[C@@H]2O[C@]2(C)CCC[C@H](C)[C@H](O)[C@@H](C)C(=O)C(C)(C)[C@@H](O)CC(=O)N1` [ixabepilone], the “number of non-responders (no pCR)” value [1] was 111, the “number of responders (pCR)” value [1] was 23 and the pCR response rate (ER+ PR+ patients (IHC), 080 trial) was 4/62 = 6%. For the same compound, the pCR response rate (ER+ PR− patients (IHC), 080 trial) was 4/15 = 26.7%, the pCR response rate (ER− PR+ patients (IHC), 080 trial) was 0/9 = 0% and the pCR response rate (ER− PR− patients (IHC), 40 mg/m^2 3-hour infusion, up to four 21-day cycles, 080 trial) was 20/61 = 33%. For the same compound, the “number of non-responders (no pCR)” value [2] was 37, the “number of responders (pCR)” value [2] was 18 and the pCR response rate (all ER+ patients (IHC), 080 trial) was 8/77 = 10.4%. For the same compound, the pCR response rate (all ER− patients (IHC), 080 trial) was 20/70 = 29%, the pCR response rate (all PR+ patients (IHC), 080 trial) was 4/71 = 5.6% and the pCR response rate (all PR− patients (IHC), 080 trial) was 24/76 = 31.5%. The pCR response rate (overall, all patients with ER and PR status, 080 trial) was “Overall: 18%”.

Reference: US20110104664A1, “BIOMARKERS AND METHODS FOR DETERMINING SENSITIVITY TO MICORTUBULE-STABILIZING AGENTS” (Bristol-Myers Squibb Company, priority 2006, published 2011)
